We go through five compounds from patent publication US20260166128A1, “HUMAN AMYLIN ANALOG, AND DERIVATIVE THEREOF AND USE THEREOF” (priority 2022, published 2026).

One series has as its target T1, human amylin receptor (Homo sapiens, UniProt O60896+P30988).
T1 construct: host or cells: CHO-K1/Ga15/AMY3 cells, further stably transfected with a CRE-luciferase plasmid
T1 sequence (P30988 25-474): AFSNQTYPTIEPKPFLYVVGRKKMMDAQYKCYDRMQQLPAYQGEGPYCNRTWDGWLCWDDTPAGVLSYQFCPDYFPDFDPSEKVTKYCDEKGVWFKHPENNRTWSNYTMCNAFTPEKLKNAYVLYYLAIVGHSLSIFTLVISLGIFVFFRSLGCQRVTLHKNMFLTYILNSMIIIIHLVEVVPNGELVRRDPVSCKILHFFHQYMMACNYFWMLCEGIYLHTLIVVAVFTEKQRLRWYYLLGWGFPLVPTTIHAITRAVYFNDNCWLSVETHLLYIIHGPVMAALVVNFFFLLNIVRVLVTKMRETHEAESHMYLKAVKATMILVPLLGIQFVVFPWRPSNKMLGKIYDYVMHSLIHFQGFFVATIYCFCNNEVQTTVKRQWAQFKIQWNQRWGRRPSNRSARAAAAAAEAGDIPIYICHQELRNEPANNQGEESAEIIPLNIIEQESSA
T1 sequence (O60896 24-148 partner): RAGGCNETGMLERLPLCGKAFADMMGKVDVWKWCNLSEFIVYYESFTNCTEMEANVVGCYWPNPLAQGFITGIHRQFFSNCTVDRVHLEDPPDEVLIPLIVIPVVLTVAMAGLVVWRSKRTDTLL
In words: Luciferase assay of amylin derivatives in amylin receptor/CRE-luc CHO cell line. In kind it is cell-based. Particulars: CHO-K1/Ga15/AMY3 CRE-luc cells, 24 hours incubation, F12 medium containing 10% FBS; read-out: EC50.

Series [1] in a line: Freeze-thaw stability of derivatives (freeze-thaw yield by liquid chromatography). In kind it is physicochemical. Particulars: for Dissolution property: appearance after dissolution at 0.2 mg/ml in 20 mM phosphate buffer solution (PB) (pH 7.0); for Freeze storage property: appearance after overnight storage at −20° C. and thawing to room temperature, 0.2 mg/ml in 20 mM PB (pH 7.0); for Freeze storage yield: concentration of polypeptide after freezing and thawing / concentration before, by liquid chromatography, −20° C. overnight. The method, boiled down: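 Lyophilised peptide derivative dissolved at 0.2 mg/ml in 20 mM phosphate buffer, pH 7.0, frozen overnight at −20° C, then thawed at room temperature. Peptide concentration before and after freeze-thaw measured by reversed-phase HPLC on centrifuged supernatant; yield = post-thaw/pre-thaw concentration.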

The structures appear in SMILES notation. Numbered stars: 1 amine (or outer) side, 2 acyl side, 3 side chain; on linkers, the order of the positions; unused ones are H or OH. Bridge positions count the residues as written; N and C are the ends. Square brackets hold non-standard residues; d marks the D form. Side chains are listed from the residue outwards. Peptide text beside a SMILES is read from it. * marks the point of attachment. C20 diacid = O=C(O)CCCCCCCCCCCCCCCCCCC(=O)*; C18 diacid = O=C(O)CCCCCCCCCCCCCCCCC(=O)*; γGlu = O=C(O)[C@H](CCC(=O)[*:2])N[*:1]; Hyp = O=C(O)[C@@H]1C[C@@H](O)CN1; Aad = N[C@@H](CCCC(=O)O)C(=O)O; AEEA = NCCOCCOCC(=O)O

Procedure for human amylin receptor: The experiment was intended to detect the activity or efficacy of the amylin derivatives on a human amylin receptor in vitro by luciferase assay.
50 μL of growth medium (F12 medium containing 10% FBS) was added into each well of a white 96-well plate, and the stably transfected amylin/CRE-lue CHO cells were inoculated into the white 96-well plate at a density of about 20,000 cells/well for activity determination.

For the compound `CC[C@H](C)[C@H](NC(=O)[C@@H]1CCCN1C(=O)[C@H](CCCCNC(=O)CC[C@H](NC(=O)CCCCCCCCCCCCCCCCCCC(=O)O)C(=O)O)NC(=O)[C@H](CC(C)C)NC(=O)[C@H](CC(N)=O)NC(=O)[C@H](CC(N)=O)NC(=O)[C@H](CO)NC(=O)[C@H](CO)NC(=O)[C@H](Cc1c[nH]cn1)NC(=O)[C@H](CCCNC(=N)N)NC(=O)[C@H](CC(C)C)NC(=O)[C@H](Cc1ccccc1)NC(=O)[C@H](CCCC(=O)O)NC(=O)[C@H](C)NC(=O)[C@H](CC(C)C)NC(=O)[C@H](CCCNC(=N)N)NC(=O)[C@H](CCC(N)=O)NC(=O)[C@@H](NC(=O)[C@H](C)NC(=O)[C@@H]1CSSC[C@H](NC(=O)[C@@H](N)CCCNC(=N)N)C(=O)N[C@@H](CC(N)=O)C(=O)N[C@@H]([C@@H](C)O)C(=O)N[C@@H](C)C(=O)N[C@@H]([C@@H](C)O)C(=O)N1)[C@@H](C)O)C(=O)N[C@@H](CC(C)C)C(=O)N1CCC[C@H]1C(=O)N1CCC[C@H]1C(=O)N[C@H](C(=O)N[C@@H](CC(N)=O)C(=O)N[C@H](C(=O)NCC(=O)N[C@@H](CO)C(=O)N[C@@H](CC(N)=O)C(=O)N[C@H](C(=O)N1CCC[C@H]1C(N)=O)[C@@H](C)O)C(C)C)[C@@H](C)O` [PD043] (H-RCNTATCATQRLA[Aad]FLRHSSNNLK([γGlu-C20 diacid])PILPPTNVGSNTP-NH2; disulfide 2-7 (inferred); N-terminus assumed), the half-maximal effective concentration (EC50) at human amylin receptor worked out at 1.13 nM. Moreover, in series [1], the Dissolution property result is reported as “Clear”, the Freeze storage property result is “Clear” and the Freeze storage yield came to 49.45%.
Take `CC[C@H](C)[C@H](NC(=O)[C@@H]1CCCN1C(=O)CNC(=O)[C@H](Cc1ccccc1)NC(=O)[C@H](CC(N)=O)NC(=O)[C@H](CC(N)=O)NC(=O)[C@H](CO)NC(=O)[C@H](CO)NC(=O)[C@H](Cc1c[nH]cn1)NC(=O)[C@H](CCCNC(=N)N)NC(=O)[C@H](CC(C)C)NC(=O)[C@H](Cc1ccccc1)NC(=O)[C@H](CCC(=O)O)NC(=O)[C@H](C)NC(=O)[C@H](CC(C)C)NC(=O)[C@H](CCCNC(=N)N)NC(=O)[C@H](CCC(N)=O)NC(=O)[C@@H](NC(=O)[C@H](C)NC(=O)[C@@H]1CSSC[C@H](NC(=O)[C@@H](N)CCCCNC(=O)CC[C@H](NC(=O)CCCCCCCCCCCCCCCCCCC(=O)O)C(=O)O)C(=O)N[C@@H](CC(N)=O)C(=O)N[C@@H]([C@@H](C)O)C(=O)N[C@@H](C)C(=O)N[C@@H]([C@@H](C)O)C(=O)N1)[C@@H](C)O)C(=O)N[C@@H](CC(C)C)C(=O)N1CCC[C@H]1C(=O)N1CCC[C@H]1C(=O)N[C@H](C(=O)N[C@@H](CC(N)=O)C(=O)N[C@H](C(=O)NCC(=O)N[C@@H](CO)C(=O)N[C@@H](CC(N)=O)C(=O)N[C@H](C(=O)N1CCC[C@H]1C(N)=O)[C@@H](C)O)C(C)C)[C@@H](C)O` [PD066]: the EC50 at human amylin receptor was 0.044 nM. Moreover, in series [1], the Dissolution property result is “Clear”, the Freeze storage property entry is reported as “Clear” and the Freeze storage yield turned out to be 93.44%.
For the compound `CC[C@H](C)[C@H](NC(=O)[C@@H]1CCCN1C(=O)CNC(=O)[C@H](CC(C)C)NC(=O)[C@H](CC(N)=O)NC(=O)[C@H](CCCCNC(=O)COCCOCCNC(=O)COCCOCCNC(=O)CC[C@H](NC(=O)CCCCCCCCCCCCCCCCC(=O)O)C(=O)O)NC(=O)[C@H](CO)NC(=O)[C@H](CO)NC(=O)[C@H](Cc1c[nH]cn1)NC(=O)[C@H](CCCNC(=N)N)NC(=O)[C@H](CC(C)C)NC(=O)[C@H](Cc1ccccc1)NC(=O)[C@H](CC(=O)O)NC(=O)[C@H](C)NC(=O)[C@H](CC(C)C)NC(=O)[C@H](CCCNC(=N)N)NC(=O)[C@H](CCC(N)=O)NC(=O)[C@@H](NC(=O)[C@H](C)NC(=O)[C@@H]1CSSC[C@H](NC(=O)[C@@H](N)CCCNC(=N)N)C(=O)N[C@@H](CC(N)=O)C(=O)N[C@@H]([C@@H](C)O)C(=O)N[C@@H](C)C(=O)N[C@@H]([C@@H](C)O)C(=O)N1)[C@@H](C)O)C(=O)N[C@@H](CC(C)C)C(=O)N1CCC[C@H]1C(=O)N1CCC[C@H]1C(=O)N[C@H](C(=O)N[C@@H](CC(N)=O)C(=O)N[C@H](C(=O)NCC(=O)N[C@@H](CO)C(=O)N[C@@H](CC(N)=O)C(=O)N[C@H](C(=O)N1C[C@H](O)C[C@H]1C(N)=O)[C@@H](C)O)C(C)C)[C@@H](C)O` [PD093] (H-RCNTATCATQRLADFLRHSSK([AEEA-AEEA-γGlu-C18 diacid])NLGPILPPTNVGSNT[Hyp]-NH2; disulfide 2-7 (inferred); N-terminus assumed), the half-maximal effective concentration (EC50) on human amylin receptor stood at 0.019 nM. In addition, in series [1], the Dissolution property result is recorded as “Clear”, the Freeze storage property entry is on record as “Clear” and the Freeze storage yield is given as 99.86%.
In the case of `CC[C@H](C)[C@H](NC(=O)[C@H](CCCCNC(=O)COCCOCCNC(=O)COCCOCCNC(=O)CC[C@H](NC(=O)CCCCCCCCCCCCCCCCCCC(=O)O)C(=O)O)NC(=O)CNC(=O)[C@H](CC(C)C)NC(=O)[C@H](CC(N)=O)NC(=O)[C@H](CC(N)=O)NC(=O)[C@H](CO)NC(=O)[C@H](CO)NC(=O)[C@H](Cc1c[nH]cn1)NC(=O)[C@H](CCCNC(=N)N)NC(=O)[C@H](CC(C)C)NC(=O)[C@H](Cc1ccccc1)NC(=O)[C@H](CC(=O)O)NC(=O)[C@H](C)NC(=O)[C@H](CC(C)C)NC(=O)[C@H](CCCNC(=N)N)NC(=O)[C@H](CCC(N)=O)NC(=O)[C@@H](NC(=O)[C@H](C)NC(=O)[C@@H]1CSSC[C@H](NC(=O)[C@@H](N)CCCNC(=N)N)C(=O)N[C@@H](CC(N)=O)C(=O)N[C@@H]([C@@H](C)O)C(=O)N[C@@H](C)C(=O)N[C@@H]([C@@H](C)O)C(=O)N1)[C@@H](C)O)C(=O)N[C@@H](CC(C)C)C(=O)N1CCC[C@H]1C(=O)N1CCC[C@H]1C(=O)N[C@H](C(=O)N[C@@H](CC(N)=O)C(=O)N[C@H](C(=O)NCC(=O)N[C@@H](CO)C(=O)N[C@@H](CC(N)=O)C(=O)N[C@H](C(=O)N1C[C@H](O)C[C@H]1C(N)=O)[C@@H](C)O)C(C)C)[C@@H](C)O` [PD103] (H-RCNTATCATQRLADFLRHSSNNLGK([AEEA-AEEA-γGlu-C20 diacid])ILPPTNVGSNT[Hyp]-NH2; disulfide 2-7 (inferred); N-terminus assumed), the 50% effective concentration (EC50) at human amylin receptor turned out to be 0.033 nM. Moreover, in series [1], the Dissolution property entry is listed as “Clear”, the Freeze storage property result is reported as “Clear” and the Freeze storage yield amounted to 98.68%.
Turning to `CC[C@H](C)[C@H](NC(=O)[C@@H]1CCCN1C(=O)CNC(=O)[C@H](CC(C)C)NC(=O)[C@H](CC(N)=O)NC(=O)[C@H](CC(N)=O)NC(=O)[C@H](CCCCNC(=O)CC[C@H](NC(=O)CCCCCCCCCCCCCCCCCCC(=O)O)C(=O)O)NC(=O)[C@H](CO)NC(=O)[C@H](Cc1c[nH]cn1)NC(=O)[C@H](CCCNC(=N)N)NC(=O)[C@H](CC(C)C)NC(=O)[C@H](Cc1ccccc1)NC(=O)[C@H](CC(=O)O)NC(=O)[C@H](C)NC(=O)[C@H](CC(C)C)NC(=O)[C@H](CCCNC(=N)N)NC(=O)[C@H](CCC(N)=O)NC(=O)[C@@H](NC(=O)[C@H](C)NC(=O)[C@@H]1CSSC[C@H](NC(=O)[C@@H](N)CCCNC(=N)N)C(=O)N[C@@H](CC(N)=O)C(=O)N[C@@H]([C@@H](C)O)C(=O)N[C@@H](C)C(=O)N[C@@H]([C@@H](C)O)C(=O)N1)[C@@H](C)O)C(=O)N[C@@H](CC(C)C)C(=O)N1CCC[C@H]1C(=O)N1CCC[C@H]1C(=O)N[C@H](C(=O)N[C@@H](CC(N)=O)C(=O)N[C@H](C(=O)NCC(=O)N[C@@H](CO)C(=O)N[C@@H](CC(N)=O)C(=O)N[C@H](C(=O)N1C[C@H](O)C[C@H]1C(N)=O)[C@@H](C)O)C(C)C)[C@@H](C)O` [PD094] (H-RCNTATCATQRLADFLRHSK([γGlu-C20 diacid])NNLGPILPPTNVGSNT[Hyp]-NH2; disulfide 2-7 (inferred); N-terminus assumed), the EC50 at human amylin receptor stood at 0.034 nM. For the same compound, in series [1], the Dissolution property entry is recorded as “Clear”, the Freeze storage property result is listed as “Clear” and the Freeze storage yield is on record as 102.94%.
